In patent EP1231468A1, “METHOD FOR DETECTING EXOGENOUS ENDOCRINE DISRUPTING CHEMICAL AND DETECTION APPARATUS” (Central Research Institute of Electric Power Industry, priority 1999, dated 2001):

Molecular target: T1, human estrogen receptor α (Homo sapiens, UniProt P03372)
T1 sequence (P03372 1-595): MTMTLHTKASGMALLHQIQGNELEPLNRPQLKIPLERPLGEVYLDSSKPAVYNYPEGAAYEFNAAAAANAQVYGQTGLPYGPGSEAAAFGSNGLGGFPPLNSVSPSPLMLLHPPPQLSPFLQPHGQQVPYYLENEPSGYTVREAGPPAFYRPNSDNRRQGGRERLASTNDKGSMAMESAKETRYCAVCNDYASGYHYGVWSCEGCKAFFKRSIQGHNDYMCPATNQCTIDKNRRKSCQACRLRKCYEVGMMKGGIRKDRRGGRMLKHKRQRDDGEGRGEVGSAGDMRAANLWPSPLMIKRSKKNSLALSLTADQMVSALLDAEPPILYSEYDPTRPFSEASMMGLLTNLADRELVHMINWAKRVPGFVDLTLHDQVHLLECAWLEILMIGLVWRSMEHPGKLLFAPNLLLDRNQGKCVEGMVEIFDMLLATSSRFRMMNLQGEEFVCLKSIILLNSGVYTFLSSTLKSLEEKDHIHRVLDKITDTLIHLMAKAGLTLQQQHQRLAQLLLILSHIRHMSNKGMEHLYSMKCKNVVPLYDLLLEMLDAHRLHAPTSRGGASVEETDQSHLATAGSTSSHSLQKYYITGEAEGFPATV
Assay: Competitive bonding of E2-BSA-CY5 and test substance to immobilized estrogen receptor, flow-type fluorescence detection
Assay type: binding
Conditions: for inhibition of bonding of E2-BSA-CY5 to the receptor (reduction in fluorescence intensity): various concentrations added to E2-BSA-CY5 of fixed concentration, Fig. 3, Fig. 5; for range of concentration in which reduction in fluorescence intensity can be confirmed / substance can be detected: bonding inhibition ratio against concentration, Fig. 4, Fig. 6
Description: As an estrogen receptor, a human estrogen receptor α [manufactured by PanVela Corporation, Drive Madison, Wisconsin, USA] was used.
Immobilization of the estrogen receptor to a carrier (beads) was carried out by natural adsorption. […] 0.2 g of the beads was put in a small test tube, and suspended in 1 ml of a buffer for bonding (50 mM tris HCl, 500 mM KCl, 2mM DDT, 1mM EDTA, 10% glycerol, pH 7.8). 70 pmol of the estrogen receptor was put in this suspension, and blended for 30 minutes at a room temperature. Thereafter, 100 µl of bovine serum albumin was added so as to obtain the final concentration of 1 mg/ml. After addition, it is further blended for 30 minutes at a room temperature. Subsequently, the particles were washed by using the same buffer, again suspended in 30 ml of the same buffer, and used for measurement. It is to be noted that, as beads for comparison in which the estrogen receptor is not immobilized, those obtained by adding only bovine serum albumin to the beads were prepared by the similar operation.
In order to provide this fluorescence dye, a CY5 labeling kit [manufactured by Amersham Life Science, Arlington Heights, Illinois, USA] was used. The 17β-estradiol-bovine serum albumin having the fluorescence dye given thereto and the free fluorescence dye were partitioned by the gel filtration chromatography.
For measurement of a fluorescence intensity, a detector having a flow type fluorophotometer [manufactured by Sapidyne Instrument Inc., Boise, Idaho, USA] incorporated therein was used. […] The fluorescence intensity can be measured in units of an electrical signal by an excitation light source 3 and the detector 4 arranged with a glass cell 1 having a diameter of 1.5 mm and a length of 30 mm therebetween. The immobilized estrogen receptor 2 having the shape of beads is filled in the glass cell 1 by being banked up and laminated by a screen S consisting of 50 µm nylon mesh set in the glass cell 1. […] The material remaining between beads, which is not bonded to the receptor 2, is discharged from the direction indicated by an arrow b by leading only the buffer at a speed of 1.5 ml/min. Thereafter, the remaining fluorescence intensity was evaluated as a quantity of bonding. Specifically, the buffer for bonding was diluted with E2-BSA-CY5 so as to obtain approximately 400 ng/ml. It is to be noted that this concentration was appropriately adjusted in accordance with a ratio of provision of the fluorescence in E2-BSA-CY5. The same quantity of the buffer for bonding in which a natural hormone or a chemical substance with the already-known concentration was dissolved was added to the diluted solution and left to take its own course at a room temperature for 30 minutes. Incidentally, in case of a water-insoluble material, it was completely dissolved in dimethyl sulfoxide and then appropriately diluted. Further, it was left to stand and used for measurement.

| Molecule | inhibition of bonding of E2-BSA-CY5 to the receptor (reduction in fluorescence intensity) | range of concentration in which reduction in fluorescence intensity can be confirmed / substance can be detected |
| --- | --- | --- |
| C[C@]12CC[C@H]3[C@@H](CCC4=CC(=O)CC[C@@]43C)[C@@H]1CC[C@@H]2O [testosterone, reference compound] | did not inhibit | – |
| nonylphenol | the fluorescence intensity was lowered | 10^-9 to 10^-5 M |
| CC(C)(c1ccc(O)cc1)c1ccc(O)cc1 [bisphenol A] | the fluorescence intensity was lowered | 10^-8 to 10^-6 M |
